From the NIST ThermoML archive (doi:10.1016/j.jct.2004.06.008)

Assay: molar heat capacity at constant pressure
Conditions: 101.33 kPa, Crystal, Vacuum adiabatic calorimetry

[Cu] [copper]
Conditions	molar heat capacity at constant pressure [J/K/mol]
6.56 K	0.0232
7.16 K	0.0255
7.85 K	0.0323
8.64 K	0.04
9.55 K	0.0534
10.51 K	0.0663
11.42 K	0.0839
12.43 K	0.1121
13.56 K	0.137
14.81 K	0.1926
16.17 K	0.2314
17.69 K	0.304
19.34 K	0.4106
20.19 K	0.4727
21.13 K	0.5555
21.94 K	0.6242
23.08 K	0.7448
23.76 K	0.8181
25.79 K	1.058
28.01 K	1.37
30.46 K	1.761
33.17 K	2.259
36.05 K	2.853
37.57 K	3.173
39.01 K	3.497
40.74 K	3.898
44.1 K	4.708
45.89 K	5.146
47.52 K	5.549
49.38 K	6.025
52.99 K	6.933
54.47 K	7.281
56.65 K	7.837
56.87 K	7.882
59.76 K	8.582
62.64 K	9.272
66.47 K	10.14
71.22 K	11.16
75.97 K	12.13
80.79 K	13.04
85.65 K	13.89
90.55 K	14.68
95.49 K	15.41
100.46 K	16.08
105.45 K	16.71
110.46 K	17.28
115.49 K	17.81
120.54 K	18.3
125.61 K	18.75
130.68 K	19.16
134.74 K	19.47
135.77 K	19.54
139.84 K	19.82
140.87 K	19.89
144.94 K	20.16
150.05 K	20.46
155.17 K	20.75
160.3 K	21.02
165.43 K	21.27
170.57 K	21.5
175.7 K	21.72
180.85 K	21.92
186 K	22.11
191.15 K	22.28
193.33 K	22.35
196.3 K	22.45
198.48 K	22.51
201.46 K	22.6
203.64 K	22.66
206.62 K	22.74
208.8 K	22.79
213.96 K	22.93
219.13 K	23.06
224.29 K	23.19
229.45 K	23.31
232.56 K	23.38
234.62 K	23.41
237.73 K	23.49
239.79 K	23.53
242.89 K	23.59
248.06 K	23.68
253.24 K	23.77
258.41 K	23.86
263.59 K	23.95
268.77 K	24.02
273.95 K	24.09
279.13 K	24.16
284.31 K	24.23
289.49 K	24.31
294.67 K	24.38
297.38 K	24.41
299.85 K	24.44
302.55 K	24.49
307.73 K	24.55
312.92 K	24.61
318.1 K	24.67
323.28 K	24.73
325.89 K	24.75
328.47 K	24.78
331.06 K	24.8
336.25 K	24.85
341.44 K	24.91
346.62 K	24.95
351.8 K	24.99
356.99 K	25.03
363.06 K	25.07
368.04 K	25.11
373.02 K	25.17
378 K	25.25
382.98 K	25.25
387.96 K	25.3
392.94 K	25.35
397.62 K	25.41
